In patent publication US9162984B2, “Small-molecule modulators of melanin expression” (University of Rochester, priority 2007, dated 2015):

Experiments:
Format in all cases: cell-based, mice
[1] = tested on: melan-a murine melanocyte cell line; assay: Melanin induction screening in melan-a melanocytes; conditions: for activity for inducing melanin production: initial screening, 2.5 μM, 3 days, melanin normalized to cell count, vs DMSO
Text: (§1) The melan-a murine melanocyte cell line was chosen for library screening. This is a non-tumorogenic line of melanocytes derived from the skin of C57Bl/6J mice (Bennett et al., Int. J. Cancer 39:414 (1987), which is hereby incorporated by reference in its entirety). These cells are ideal for phenotypic melanin screening as they proliferate quickly, are highly differentiated, and have been extensively studied (Snyder et al., Chemistry & Biology 12(4):477 (2005), which is hereby incorporated by reference in its entirety). Melanocytes were cultured in RPMI 1640 media supplemented with 10% FBS and 0.2 μM TPA, at 37° C. under 5% CO2, 95% atmosphere. For screening, 1×10^5 melan-a melanocytes were plated in 24 well tissue culture plates in a volume of 2 ml. After 18 hr incubation, 1 ml of media was removed and replaced by 1 ml media doped with small molecule, forskolin positive control, or DMSO vehicle control for 3 days. Initial screening was performed at a 2.5 μM dose (0.01% DMSO). Cells were harvested by trypsinization, washed 2× with PBS (pH 7.2), and counted by hemocytometry. Cell counts were used to assess treatment effects on cell proliferation. Melanin production was quantified by lysing cell pellets in 800 μl of 1 M NaOH for 2 hrs on ice, vigorously resuspending the lysed material by pipette, reading the absorbance at 490 nm of 200 μl aliquots of total lysate, and referencing to a standard synthetic melanin (Sigma) curve. The 75 member library was screened in triplicate. Melanin production was normalized to cell count (A490/million cells) and fold change against DMSO was calculated (FIG. 2).

[2] = tested on: melan-a murine melanocyte cell line; assay: Cell counts by hemocytometry to assess treatment effects on cell proliferation
Text: as §1, with “After 18 hr incubation, 1 ml of media was removed and replaced by 1 ml media doped with small molecule, forskolin positive control, or DMSO vehicle control for 3 days. Initial screening was performed at a 2.5 μM dose (0.01% DMSO).” left out, “Cell counts were used to assess treatment effects on cell proliferation.” left out, “The 75 member library was screened in triplicate.” left out

Tyrosinase [3] = assay: Tyrosinase activity assay (tritiated water from L-tyrosine-3,5-[3H]) in lysates of treated melanocytes; conditions: 2.5 μM, 3 days; to a lesser degree than forskolin positive control
Text: To further understand the mode of action for A7, tyrosinase activity was quantitated. Tyrosinase functions to hydroxylate tyrosine to dopaquinone and L-DOPA in the first step of melanin production (Ito, Pigment Cell Res. 16:230 (2003), which is hereby incorporated by reference in its entirety). As such, increased tyrosinase activity leads to increased melanin production. Tyrosinase activity can be measured by monitoring the production of tritiated water upon the hydroxylation of L-tyrosine-3,5-[^3H] to L-DOPA (Pomerantz, J. Biol. Chem. 241(1):161 (1966); Park et al., J. Biol. Chem. 268:11742 (1993), which are hereby incorporated by reference in their entirety).
Similarly to library screening, in quadruplet, melanocytes were cultured with and without 2.5 μM small molecule treatment for 3 days. Resulting cell pellets were lysed in 75 μl of 80 mM K2PO4, 1% CHAPS, 2 mM PMSF, and PICO2 protease inhibitor cocktail (CalBioChem) for 2 hours on ice. Lysates were then pelleted (10 minutes, 4° C., 10,000 rpm) and protein concentration was determined by Bradford assay. […] Aliqouts of 1.0 ml of the tritiated water containing supernatant were transferred to scintillation vials containing 5.0 ml scintillation fluid, and ^3H levels were counted. […]

Tyrosinase [4] = assay: Western blot analysis of cellular tyrosinase levels; conditions: treated melanocytes
melan-a melanocytes = assay: Melanocyte dendricity by hematoxylin staining; conditions: 2.5 μM, 72 hours; untreated 36%
Protocol: Melanocytes are highly dendritic cells, and dendricity has been correlated with melanin production (Kosano et al., Biochim. Biophys. Acta 1499:11 (2000); Scott et al., J. Invest. Dermatol. 126:855 (2006), which are hereby incorporated by reference in their entirety). Dendricity was assessed by histochemical hematoxylin staining of melan-a melanocytes with and without 2.5 μM A7 treatment. 1×10^4 melan-a melanocytes were cultured onto vitrogen coated cover slips and treated with 2.5 μM A7 or vehicle control for 72 hours. Cells were fixed in 3.7% formalin/PBS, stained with hematoxylin, and imaged. Dendrites per cell were manually quantitated, and the percentage of cells with greater than 2 dendrites was calculated.

SMILES	activity for inducing melanin production [1]	further results
O=C(NCCc1ccc(F)cc1)c1ccco1 [Compound C5, N-(4-fluorophenethyl)furan-2-carboxamide]	some activity	–
CCc1nc2ccccc2cc1C(=O)NCCc1cccc(F)c1 [Compound A7, N-(3-fluorophenethyl)-2-ethylquinoline-3-carboxamide]	some activity	effect on cell proliferation in dose response ([2]; concentrations up to 5 μM): no significant effect on cell proliferation; cytotoxic effects in cell culture ([2]; melanocytes in culture): does not exhibit cytotoxic effects; tyrosinase activity in melanocyte culture (Tyrosinase [3]): increases tyrosinase activity; cellular levels of tyrosinase (Tyrosinase [4]): not altered; concentration giving the optimal melanogenic response ([1]; dose response, melanin quantity normalized to DMSO): 2.5 µM; ranking of melanin induction among hits ([1]; subsequent analysis of library hits): most active hit; percentage of cells with greater than 2 dendrites (melan-a melanocytes): 69%
O=C(NCCc1cccc(F)c1)c1ccco1 [Compound C7, N-(3-fluorophenethyl)furan-2-carboxamide]	some activity	–
O=C(c1ccc2c(c1)OCO2)N1CCN(c2ccc(F)cc2)CC1 [Compound E4, (benzo[d][1,3]dioxol-5-yl)(4-(4-fluorophenyl)piperazin-1-yl)methanone]	some activity	–
CC1(C)CCCC(C)(C)N1C(=O)c1c(F)c(F)c(F)c(F)c1F [Compound D10, (2,2,6,6-tetramethylpiperidin-1-yl)(perfluorophenyl)methanone]	some activity	–
CCc1nc2ccccc2cc1C(=O)NCCc1ccc(F)cc1 [Compound A5, N-(4-fluorophenethyl)-2-ethylquinoline-3-carboxamide]	some activity	–
O=C(NCc1ccco1)c1ccco1 [Compound C1, N-((furan-2-yl)methyl)furan-2-carboxamide]	some activity	–
Cc1cc(NC(=O)c2c(F)c(F)c(F)c(F)c2F)no1 [Compound D12, 2,3,4,5,6-pentafluoro-N-(5-methylisoxazol-3-yl)benzamide]	some activity	–
CC1(C)CCCC(C)(C)N1C(=O)c1ccco1 [Compound C10, (furan-2-yl)(2,2,6,6-tetramethylpiperidin-1-yl)methanone]	some activity	–
CCCCNC(=O)c1ccco1 [Compound C2, N-butylfuran-2-carboxamide]	some activity	–
